Measurements reported in US9499509B2, “Dihydrochalcone derivatives and their use as antibiotic agents” (UNIVERSITÉ DU QUÉBEC À CHICOUTIMI, priority 2012, dated 2016).
Values after ≈ are worked out from the molar mass of the structure shown. Where a name gives a salt, the structure may show the parent alone. Read-outs that look alike come from different tables or passages of the source.

System: Streptococcus pneumoniae
Assay: Antibiotic assay (resazurin, Example 1), Streptococcus pneumoniae
Assay type: cell-based
Description: Bacteria Strain. […] The MRSA were obtained as further described below.
Antibiotic agents. Cyprofloxacin and erythromycin were provided by Sigma-Aldrich. Gentamicin sulfate and vancomycin hydrochloride were provided by Calbiochem.
Five additional strains were tested: Streptococcus pneumoniae, Streptococcus agalactiae, Streptococcus pyogenes, Enterococcus faecalis and Corynebacterium jeikeium.

[1] = Strep. pneumoniae 14070, read-out: IC50
[2] = Strep. pneumoniae 14112, read-out: IC50
[3] = Strep. pneumoniae 14138, read-out: IC50
[4] = Strep. pneumoniae 14144, read-out: IC50
[5] = Strep. pneumoniae 14148, read-out: IC50

Structure (SMILES)	Minimum Inhibitory Concentration (MIC) (Strep. pneumoniae 14070)	IC50 [1]	Minimum Inhibitory Concentration (MIC) (Strep. pneumoniae 14112)	IC50 [2]	Minimum Inhibitory Concentration (MIC) (Strep. pneumoniae 14138)	IC50 [3]	Minimum Inhibitory Concentration (MIC) (Strep. pneumoniae 14144)	IC50 [4]	Minimum Inhibitory Concentration (MIC) (Strep. pneumoniae 14148)	IC50 [5]	activity against Streptococcus pneumoniae 14070 strain (in words)	activity against Streptococcus pneumoniae strain 14144 (in words)	activity against Streptococcus pneumoniae strain 14138 (in words)	also measured
COc1ccc(CCC(=O)c2c(O)cc(O)c(C/C=C/c3ccc(O)cc3)c2O)cc1 [Compound II]	(122) μM	54 ± 4 µM	(169) μM	74 ± 6 µM	(>200) μM	> 200 µM	(>200) μM	> 200 µM	(200) μM	83 ± 7 µM	active	not active	–	–
O=C(CCc1ccccc1)c1c(O)cc(O)c(C/C=C/c2ccc(O)cc2)c1O [Compound III]	(>200) μM	124 ± 5 µM	(190) μM	89 ± 5 µM	(>200) μM	> 200 µM	(>200) μM	> 200 µM	(200) μM	93 ± 7 µM	active	not active	–	–
COc1cc(O)c(C(=O)CCc2ccc(O)cc2)c(O)c1C/C=C/c1ccc(O)cc1 [Compound I]	(74.1) μM	29 ± 5 µM	(66.2) μM	29 ± 3 µM	(>200) μM	142 ± 12 µM	(>200) μM	> 200 µM	(81.2) μM	40 ± 4 µM	active	not active	had an activity	activity against Streptococcus pneumoniae strain 14112 (in words): active; activity against Streptococcus pneumoniae strain 14148 (in words): active
CN[C@H](CC(C)C)C(=O)N[C@H]1C(=O)N[C@@H](CC(N)=O)C(=O)N[C@H]2C(=O)N[C@H]3C(=O)N[C@H](C(=O)N[C@H](C(=O)O)c4cc(O)cc(O)c4-c4cc3ccc4O)[C@H](O)c3ccc(c(Cl)c3)Oc3cc2cc(c3O[C@@H]2O[C@H](CO)[C@@H](O)[C@H](O)[C@H]2O[C@H]2C[C@](C)(N)[C@H](O)[C@H](C)O2)Oc2ccc(cc2Cl)[C@H]1O [Vancomycin, vancomycin hydrochloride, reference compound]	–	–	–	–	–	–	–	–	–	–	–	–	had an activity	IC50 (Streptococcus pneumoniae, Strep. pneumoniae 14070): 0.09 ± 0.04 µM; IC50 (Streptococcus pneumoniae, Strep. pneumoniae 14112): 0.094 ± 0.008 µM; IC50 (Streptococcus pneumoniae, Strep. pneumoniae 14138): 0.13 ± 0.08 µM; IC50 (Streptococcus pneumoniae, Strep. pneumoniae 14144): > 10 µM; IC50 (Streptococcus pneumoniae, Strep. pneumoniae 14148): 0.084 ± 0.006 µM; MIC (Streptococcus pneumoniae, read-out: Minimum Inhibitory Concentration (MIC), Strep. pneumoniae 14070): 8.37 µM; MIC (Streptococcus pneumoniae, read-out: Minimum Inhibitory Concentration (MIC), Strep. pneumoniae 14112): 0.16 µM; MIC (Streptococcus pneumoniae, read-out: Minimum Inhibitory Concentration (MIC), Strep. pneumoniae 14138): > 10 µM; MIC (Streptococcus pneumoniae, read-out: Minimum Inhibitory Concentration (MIC), Strep. pneumoniae 14144): > 10 µM; MIC (Streptococcus pneumoniae, read-out: Minimum Inhibitory Concentration (MIC), Strep. pneumoniae 14148): 0.2 µM
O=C(O)c1cn(C2CC2)c2cc(N3CCNCC3)c(F)cc2c1=O [Ciprofloxacin, reference compound]	–	–	–	–	–	–	–	–	–	–	–	not active	–	IC50 (Streptococcus pneumoniae, Strep. pneumoniae 14070, read-out: IC50): > 200 µM; MIC (Streptococcus pneumoniae, Strep. pneumoniae 14070, read-out: Minimum Inhibitory Concentration (MIC)): > 200 µM; IC50 (Streptococcus pneumoniae, Strep. pneumoniae 14112, read-out: IC50): 63 ± 6 µM; MIC (Streptococcus pneumoniae, Strep. pneumoniae 14112, read-out: Minimum Inhibitory Concentration (MIC)): 200 µM (≈ 66.3 µg/mL); IC50 (Streptococcus pneumoniae, Strep. pneumoniae 14138, read-out: IC50): > 200 µM; MIC (Streptococcus pneumoniae, Strep. pneumoniae 14138, read-out: Minimum Inhibitory Concentration (MIC)): > 200 µM; IC50 (Streptococcus pneumoniae, Strep. pneumoniae 14144, read-out: IC50): > 200 µM; MIC (Streptococcus pneumoniae, Strep. pneumoniae 14144, read-out: Minimum Inhibitory Concentration (MIC)): > 200 µM; IC50 (Streptococcus pneumoniae, Strep. pneumoniae 14148, read-out: IC50): 56 ± 6 µM; MIC (Streptococcus pneumoniae, Strep. pneumoniae 14148, read-out: Minimum Inhibitory Concentration (MIC)): 200 µM (≈ 66.3 µg/mL)
